According to paper PMC7734623 (Antiviral chemistry & chemotherapy, 2012):
Converted amounts (≈) assume the structure as drawn. Counter-ions that a name gives are not always drawn. Like-named read-outs stand apart in the source and are kept apart here.

Legend:
HIV-1LAI = assay: HIV-1 replication reverse transcriptase assay in PBMC; type: cell-based, HIV type-1; details: for anti-HIV-1 activity (in words): HIV-1LAI in human PBMC
[1] = tested on: primary human peripheral blood mononuclear cells; assay: Cytotoxicity on PBMCs; details: for CC50: experiment 1, PBMC
[2] = tested on: A/California/07/2009 (pandemic swine-origin H1N1); assay: microbe, parasite or virus in culture; type: cell-based, Influenza A virus (H1N1)
[3] = tested on: A/Perth/16/2009 (seasonal H3N2); assay: microbe, parasite or virus in culture; type: cell-based, Influenza A virus (H3N2)
[4] = tested on: A/duck/Minnesota/1525/81 (low pathogenic avian influenza H5N1); assay: microbe, parasite or virus in culture; type: cell-based, Influenza A virus (H5N1 low pathogenic)
[5] = tested on: A/Vietnam/1203/2004 (highly pathogenic avian influenza H5N1); assay: microbe, parasite or virus in culture; type: cell-based, Influenza A virus (H5N1 highly pathogenic)
B/Florida/4/2006 = assay: microbe, parasite or virus in culture; type: cell-based, Influenza B virus
[6] = tested on: human parainfluenza virus type 3 (isolate 14702); assay: microbe, parasite or virus in culture; type: cell-based
[7] = tested on: severe acute respiratory syndrome (SARS) coronavirus (strain Urbani); assay: microbe, parasite or virus in culture; type: cell-based
[8] = tested on: primary human peripheral blood mononuclear cells
[9] = tested on: Madin–Darby canine kidney (MDCK) cells; details: A/duck/Minnesota/1525/81 test
[10] = tested on: MA-104 embryonic African green monkey kidney epithelial cells
[11] = tested on: Vero 76 African green monkey kidney epithelial cells
[12] = Hydrolytic stability of DMSO stock solution under freezing–; details: multiple freezing–(re-thawing) cycles
in vitro [13] = details: African green monkey
in vitro [14] = details: dog
in vitro [15] = details: African green monkey; remark: listed apart in the source
in vitro [16] = details: human
[17] = experiment 1, PBMC, 9: fresh DMSO stock
[18] = experiment 1, PBMC, RT activity in supernatant, 9: fresh DMSO stock
[19] = experiment 1, DMSO stock after second FRC
[20] = experiment 2, PBMC, 9: fresh DMSO stock
[21] = Human immunodeficiency virus 1, PBMC, experiment 1, PBMC, 9: fresh DMSO stock
[22] = Human immunodeficiency virus 1, PBMC, experiment 2, PBMC, 9: fresh DMSO stock

Compound: O=C([O-])CC[C@H](NC(=O)c1ccc(NCc2cnc3nc([N-]c4nc5ncc(CNc6ccc(C(=O)N[C@@H](CCC(=O)[O-])C(=O)[O-])cc6)nc5c(=O)[nH]4)[nH]c(=O)c3n2)cc1)C(=O)[O-].[Na+].[Na+].[Na+].[Na+].[Na+] [Compound 10, Pentasodium (2S,2′S)-2,2′-{azanidediylbis[(4-{[(4-oxo-3,4-dihydropteridine-2,6-diyl)methyl]amino}benzoyl)amino]}dipentanedioate×3 H2O×2.5 acetone]
- anti-HIV-1 activity (in words) (HIV-1LAI): did not show any anti-HIV-1 activity
- EC90 (HIV-1LAI; [17]): > 100 µM
- EC50 (HIV-1LAI; [18]): > 100 µM
- CC50 [1]: > 100 µM

Compound: Cl.O=C(CNC12CC3CC(CC(C3)C1)C2)c1ccc(F)cc1 [Compound 12, 1-(4-Fluorophenyl)-2-(tricyclo[3.3.1.1^3,7]dec-1-ylamino) ethanone hydrochloride×0.11 H2O]
- anti-HIV-1 activity (in words) (HIV-1LAI): did not show any anti-HIV-1 activity
- EC90 (HIV-1LAI; [17]): > 100 µM
- EC50 (HIV-1LAI; [18]): > 100 µM
- EC50 [2]: >36 µg/mL
- inhibition of virus replication (in words) [2]: inactive
- EC50 [3]: >37 µg/mL
- inhibition of virus replication (in words) [3]: inactive
- inhibition of virus replication (in words) ([4]; A/duck/Minnesota/1525/81 (H5N1), amantadine-susceptible): did inhibit
- EC50 ([4]; A/duck/Minnesota/1525/81, MDCK (25 CCID50), neutral red): 0.95 µg/mL
- EC50 ([4]; low pathogenic H5N1 A/duck/Minnesota/1525/81): 2.92 µM
- inhibition of virus replication (in words) ([5]; A/Vietnam/1203/2004): inactive
- EC50 ([5]; A/Vietnam/1203/2004, MDCK (≤42 CCID50), neutral red): 50 µg/mL
- EC50 (B/Florida/4/2006): >50 µg/mL
- inhibition of virus replication (in words) (B/Florida/4/2006): inactive
- EC50 [6]: >49 µg/mL
- inhibition of virus replication (in words) [6]: did not inhibit
- inhibition of virus replication (in words) ([7]; SARS coronavirus): did not inhibit
- EC50 ([7]; Urbani, Vero 76 (130 CCID50), neutral red): 92 µg/mL
- CC50 [8]: > 100 µM
- CC50 [9]: 35 µg/mL
- CC50 [10]: 49 µg/mL
- CC50 [11]: >100 µg/mL
- activity of DMSO stock solution during multiple FRCs (in words) [12]: did not lose activity

Compound: CC(=NC12CC3CC(CC(C3)C1)C2)c1ccc(F)cc1 [Compound 4, 1-(4-Fluorophenyl)ethanone – tricyclo[3.3.1.1^3,7]dec-1-ylazanylidene (1:1)]
- anti-HIV-1 activity (in words) (HIV-1LAI): did not show any anti-HIV-1 activity
- EC90 (HIV-1LAI; [17]): > 100 µM
- EC50 (HIV-1LAI; [18]): > 100 µM
- CC50 [8]: > 100 µM

Compound: CC(C)C[C@H](NC(=O)OCc1ccccc1)C(=O)NC(CCC(=O)N(C)C)C(=O)CF (mixture of isomers) [EP128533, (4RS)-4-[N-(benzyloxycarbonyl)-L-leucylamino]-6-fluoro-5-oxohexanoic acid N,N-dimethylamide, reference compound]
- EC50 ([7]; Severe acute respiratory syndrome-related coronavirus, Vero 76): 1.3 µg/mL
- CC50 (in vitro [13]): > 100 µg/mL

Compound: CCC(CC)O[C@@H]1C=C(C(=O)O)C[C@H](N)[C@H]1NC(C)=O [oseltamivir carboxylate, (3R,4R,5S)-4-(acetylamino)-5-amino-3-(pentan-3-yloxy)cyclohex-1-ene-1-carboxylic acid, reference compound]
- EC50 ([4]; Influenza A virus, H5N1, MDCK): 0.061 µg/mL
- CC50 (in vitro [14]): > 10 µg/mL

Compound: NC(=O)c1ncn([C@@H]2O[C@H](CO)[C@@H](O)[C@H]2O)n1 [ribavirin, 1-β-D-ribofuranosyl-1H-1,2,4-triazole-3-carboxamide, reference compound]
- EC50 ([2]; Influenza A virus, H1N1, MDCK): 4.2 µg/mL (≈ 17.2 µM)
- EC50 ([3]; Influenza A virus, H3N2, MDCK): 2.9 µg/mL (≈ 11.9 µM)
- EC50 ([4]; Influenza A virus, H5N1, MDCK): 5.4 µg/mL
- EC50 ([5]; Influenza A virus, H5N1, MDCK): 9.4 µg/mL (≈ 38.5 µM)
- EC50 (B/Florida/4/2006; Influenza B virus, MDCK): 3.9 µg/mL (≈ 16 µM)
- EC50 ([6]; Human respirovirus 3, MA104): 14 µg/mL (≈ 57.3 µM)
- CC50 (in vitro [14]): > 100 µg/mL
- CC50 (in vitro [15]): 190 µg/mL (≈ 778 µM)

Compound: [1,4-Bis(4-hydroxyphenyl)butane-1,4-dione – 1,4-bis(4-methoxyphenyl)butane-1,4-dione (7) – (2S,2′S)-2,2′-{[(tricyclo[3.3.1.1^3,7]dec-1-ylamino)methanediyl] bis(pteroylimino)}dipentanedioic acid (0.2:1:1)]×3 H2O×0.4 acetone [Compound 9]
- antiretroviral activity after first FRC (in words) (HIV-1LAI; DMSO stock after first FRC): seriously affected
- antiretroviral activity after second FRC (in words) (HIV-1LAI; DMSO stock after second FRC): completely lost
- anti-HIV-1 activity (in words) (HIV-1LAI): effective inhibitor
- EC90 (HIV-1LAI; experiment 1, DMSO stock after first FRC): 57.7 µM
- EC50 (HIV-1LAI; experiment 1, DMSO stock after first freezing-(re-thawing) cycle (FRC)): 32.7 µM
- EC50 (HIV-1LAI; [19]): > 100 µM
- EC90 (HIV-1LAI; [19]): > 100 µM
- EC90 (HIV-1LAI; [17]): 34.2 µM
- EC50 (HIV-1LAI; [18]): 3.5 µM
- EC50 (HIV-1LAI; [20]): 10.8 µM
- EC90 (HIV-1LAI; [20]): 34.8 µM

Compound: Nc1nc2ncc(CNc3ccc(C(=O)N[C@@H](CCC(=O)O)C(=O)O)cc3)nc2c(=O)[nH]1.O.O [Compound 8, L-folic acid dihydrate, reference compound]
- anti-HIV-1 activity (in words) (HIV-1LAI): did not show any anti-HIV-1 activity
- EC50 (HIV-1LAI; [20]): > 100 µM
- EC90 (HIV-1LAI; [20]): > 100 µM
- toxicity in PBMC (in words) [1]: exhibited toxicity
- CC50 [1]: 25.7 µM

Compound: Cc1cn([C@H]2C[C@H](N=[N+]=[N-])[C@@H](CO)O2)c(=O)[nH]c1=O [AZT, 3′-azido-3′-deoxythymidine, reference compound]
- EC90 (HIV-1LAI; [21]): 0.031 µM
- EC50 (HIV-1LAI; [22]): 0.0091 µM
- EC90 (HIV-1LAI; [22]): 0.047 µM
- SI50 (selectivity index CC50/EC50) (HIV-1LAI; experiment 1): >22,727
- SI50 (selectivity index CC50/EC50) (HIV-1LAI; experiment 2): >10,989
- CC50 ([8]; human): > 100 µM
- CC50 (in vitro [16]): > 100 µM

Compound: Nc1nc2ncc(CNc3ccc(C(=O)N[C@@H](CCC(=O)[O-])C(=O)[O-])cc3)nc2c(=O)[nH]1.O.O.O.O.[Na+].[Na+] [Compound 11, Disodium (2S)-2-(pteroylamino)pentanedioate×4 H2O]
- anti-HIV-1 activity (in words) (HIV-1LAI): did not show any anti-HIV-1 activity
- EC90 (HIV-1LAI; [17]): > 100 µM
- EC50 (HIV-1LAI; [18]): > 100 µM
- CC50 [8]: > 100 µM

Compound: NC12CC3CC(CC(C3)C1)C2 [1 ×HCl, 1-Adamantanammonium chloride, reference compound]
- anti-HIV-1 activity (in words) (HIV-1LAI): did not show any anti-HIV-1 activity
- EC90 (HIV-1LAI; [21]): > 100 µM
- SI50 (selectivity index CC50/EC50) (HIV-1LAI; experiment 1): >1.1
- CC50 (in vitro [16]): > 100 µM
